{"source": "patent US20190106460A1", "about": "“BINDING INHIBITORS OF THE BETA. TRANSDUCIN REPEAT-CONTAINING PROTEIN” (priority 2011, published 2019)", "key": {"PDCD4 in MCF7 cells": {"system": "PDCD4 in MCF7 cells", "assay": "In-cell western assay for PDCD4 accumulation", "type": "cell-based", "experimental": "In-Cell Western Assay for PDCD4 Accumulation.\nTo measure this an in-cell western assay was used and the peptidomimetics were delivered to the cells by nucleofection.\nMCF7 cells were grown in 10 cm dishes in 10 ml DMEM+10% FBS and 1% Pen/Strep at 37° C./5% CO2. On the day of nucleofection, the dish was washed with 90% confluent MCF7 cells with 5 ml PBS, then 3 ml of Trypsin/EDTA was added and incubated at 37° C./5% CO2 for approximately 5 mins until the cells detached from the plastic. 7 ml of normal growth media was added and the number of cells present was counted using a haemocytometer.\nThe cells were centrifuged cells at 90 g for 10 mins at RT and the supernatant was removed. 100 μl of Nucleofection Buffer V+ Supplement was added (Lonza Biologics Cat no VCA-1003) per 8×10^5 cells, and the cells were added to peptidomimetics dissolved in <3% DMSO.\nThe cell/peptidomimetic mix was added to cuvettes supplied for the nucleofector and the sample was nucleofected using the recommended MCF7 programme for high cell viability (i.e. E-014). 500 μl of TPA (12-O-tetradecanoylphorbol-13-acetate)-supplemented growth media (i.e. DMEM/10% FBS/1% Pen-Strep/10 nM TPA) was added to the cuvette and 100 μl of this solution was transferred to a well of a 96 well plate and incubated at 37° C./5% CO2 for 8 hours.\nThe celled were fixed by removing the growth media, adding 3.7% Formaldehyde in PBS and incubating at RT for 20 mins. The plate was washed three times in PBS. And the cells were permeabilised by washing 5× for 5 mins each in PBS+0.1% Triton X-100.\nThe cells were blocked by adding 3% BSA in PBS-Tween to the cells and incubating at RT for 1.5 hours. An anti-PDCD4 antibody (Abcam cat no: ab80590) was added at a concentration of 1:1000 in 3% BSA in PBS-T (50 ul/well) and incubated at RT for 2.5 hours. The cells were washed 5× for 5 mins each with PBS-T before the secondary antibody (LiCor Biosciences Donkey Anti-Rabbit IRDye 800CW cat no 926-32213) was added at a concentration of 1:1000, along with the DNA stain DRAQ5 at a concentration of 1:10000, in 3% BSA in PBS-T (50 ul/well) and incubated at RT for 1 hour, protected from light.\nThe cells were washed cells 5× for 5 mins each with PBS-T and all the liquid was removed from the wells before the plate was read on the LiCor Biosciences Odyssey at 700 nm and 800 nm. The reading was normalised in the 800 nm channel to that in the 700 nm channel. The data are shown in FIG. 12, where DMSO was used as a negative control and 20 μM MG132 was used as a positive control. The data is presented as percentage activity with DMSO=0% and […]=100% activity. Error bars represent standard deviation from 3 replicates.\nThe compounds shown in FIGS. 14A-14B were synthesised to improve cell permeability. […] FIG. 16 compares the round II compounds (shown in FIGS. 14A-14B) with UBP036 in this assay. […] Inhibition of βTrCP, which is responsible for the degradation of both PDCD4 and β-catenin, causes a concomitant stabilisation and accumulation of levels of these proteins which can be measured by in cell western assay."}, "LNCaP (prostate cancer)": {"system": "LNCaP (prostate cancer)", "assay": "xCELLigence cell viability / proliferation, LNCaP", "type": "cell-based", "experimental": "Example 9—Cell Based Activity of Cell Permeable Compounds on the xCELLigence Platform\nThe effects of the compounds shown in FIGS. 14A-14B were tested on cancer cell lines MCF7 (breast cancer) and LNCaP (prostate cancer) using the xCELLigence platform (http://www.roche-applied-science.com/sis/xcelligence/ezhome.html). This method of measuring cell viability via measuring cell index is known in the art.\nDifferent doses of the compounds were tested on MCF7 cells to see if there would be an effect on their cell viability.\nThe control compound was compared to its partner active compound (UBP037).\nxCELLigence Method • Before starting the experiment add 50 μL of medium (RPMI 1640, 10% fetal bovine serum, 100 units/mL penicillin, 100 ug/mL streptomycin, and 2 mmol/L glutamine, all from GIBCO) to each well of 96 well E-plate (Roche) and place the plate in the xCELLigence platform to measure the background. • LNCaP/PNT-1 cells are seeded (LNCaPs 80000 cells/well; PNT1 3000 cells/well) in the plate in complete medium and equilibrated for 60 mins at RT before returning to the xCELLigence platform and incubating at 37° C./5% CO2. • 24 hrs after seeding, remove 100 μL of medium was removed from each well and cells were treated with compounds or DMSO diluted in 100 μL of OptiMEM (GIBCO). • Replace the plate in the xCELLigence platform • Cells growth can then be monitored in real-time by the cell index profile on the xCELLigence readout screen • Cell growth can be expressed as normalized cell index and doubling time/slope calculated using the RTCA software."}}, "note": "Non-standard residues stand in square brackets, D forms with d. Residues, ends and D or L forms follow the SMILES beside them. Groups on a side chain read outwards from the residue. *: point of attachment. X3 = CC(C)CCC[C@@H](C)[C@H]1CCC2C3CC=C4C[C@@H](OC(=O)*)CC[C@]4(C)C3CC[C@@]21C; Benzenesulfonyl(4-OMe) = COc1ccc(S(=O)(=O)*)cc1; Phe(3-F) = N[C@@H](Cc1cccc(F)c1)C(=O)O; Ahx = NCCCCCC(=O)O", "data": [{"smiles": "COc1ccc(S(=O)(=O)N[C@H](CC(=O)O)C(=O)N[C@@H](CCC(=O)O)C(=O)NCC(=O)N[C@@H](Cc2cccc(F)c2)C(=O)N[C@@H](Cc2c[nH]c3ccccc23)C(=O)N[C@@H](CCC(=O)O)C(=O)NCCCCCC(=O)N[C@@H](CCCCNC(=O)CCCCCNC(=O)O[C@H]2CC[C@@]3(C)C(=CCC4C3CC[C@@]3(C)C4CC[C@@H]3[C@H](C)CCCC(C)C)C2)C(N)=O)cc1", "note": "(stereo partly drawn) [UBP036, 4-(MeO)PhSO2-dEGF(3F)WE-Ahx-K(Ahx-Chol)-NH2] ({Benzenesulfonyl(4-OMe)}-[dD]EG[Phe(3-F)]WE[Ahx]K([Ahx-X3])-NH2)", "values": [{"measurement": "accumulation of PDCD4, in cell western", "setting": "PDCD4 in MCF7 cells; MCF7, treatment with cell permeable compound", "value": "accumulation of PDCD4"}, {"measurement": "cell based activity", "setting": "PDCD4 in MCF7 cells; general statement, different delivery vehicles", "value": "display cell based activity"}, {"measurement": "cell growth / proliferation, xCELLigence", "setting": "LNCaP (prostate cancer)", "value": "inhibit the growth"}]}]}
